According to ChEMBL document CHEMBL5370605, “Discovery of Novel Fedratinib-Based HDAC/JAK/BRD4 Triple Inhibitors with Remarkable Antitumor Activity against Triple Negative Breast Cancer” (J Med Chem, 2023):

Assays:
[1] = Metabolic stability in mouse liver microsomes assessed as half life in presence of NADPH by LC-MS/MS analysis; assay type: ADME, Microsome
[2] = Tmax in ICR (CD-1) mouse at 50 mg/kg, ip measured for 24 hrs by LC-MS/MS analysis; assay type: ADME, organism-based; conditions: in vivo
[3] = Cmax in ICR (CD-1) mouse at 10 mg/kg, iv measured for 24 hrs by LC-MS/MS analysis; assay type: ADME, organism-based; parameters: time 24 hrs, dose 10 mg/kg, route iv; conditions: in vivo
[4] = AUC (0 to t) in ICR (CD-1) mouse at 10 mg/kg, iv measured for 24 hrs by LC-MS/MS analysis; assay type: ADME, organism-based; parameters: dose 10 mg/kg, time 24 hrs, route iv; conditions: in vivo
[5] = AUC (0 to t) in ICR (CD-1) mouse at 50 mg/kg, ip measured for 24 hrs by LC-MS/MS analysis; assay type: ADME, organism-based; parameters: dose 50 mg/kg, time 24 hrs, route ip; conditions: in vivo
[6] = MRT (0 to t) in ICR (CD-1) mouse at 10 mg/kg, iv measured for 24 hrs by LC-MS/MS analysis; assay type: ADME, organism-based; conditions: in vivo
[7] = MRT (0 to t) in ICR (CD-1) mouse at 50 mg/kg, ip measured for 24 hrs by LC-MS/MS analysis; assay type: ADME, organism-based; conditions: in vivo
[8] = Volume of distribution at steady state in ICR (CD-1) mouse at 10 mg/kg, iv measured for 24 hrs by LC-MS/MS analysis; assay type: ADME, organism-based; conditions: in vivo
[9] = Bioavailability in ICR (CD-1) mouse at 50 mg/kg, ip measured for 24 hrs by LC-MS/MS analysis; assay type: ADME, organism-based; conditions: in vivo, ip, 50 mg/kg, 24 h
[10] = Toxicity in athymic BALB/c nude mouse xenografted with human MDA-MB-231 cells assessed as reduction in body weight at 25 to 50 mg/kg/day, ip administered for 28 consecutive days; assay type: organism-based; conditions: in vivo, 672 h, dose 25-50 mg/kg/day, time 28 day
Histone deacetylase 8 = biological target: T1, Histone deacetylase 8 (Homo sapiens, UniProt Q9BY41); assay: Inhibition of HDAC8 (unknown origin) using Boc-Lys-(trifluoroacetyl)-AMC as substrate incubated for 30 mins by fluorescence based analysis
T1 sequence (Q9BY41 whole entry): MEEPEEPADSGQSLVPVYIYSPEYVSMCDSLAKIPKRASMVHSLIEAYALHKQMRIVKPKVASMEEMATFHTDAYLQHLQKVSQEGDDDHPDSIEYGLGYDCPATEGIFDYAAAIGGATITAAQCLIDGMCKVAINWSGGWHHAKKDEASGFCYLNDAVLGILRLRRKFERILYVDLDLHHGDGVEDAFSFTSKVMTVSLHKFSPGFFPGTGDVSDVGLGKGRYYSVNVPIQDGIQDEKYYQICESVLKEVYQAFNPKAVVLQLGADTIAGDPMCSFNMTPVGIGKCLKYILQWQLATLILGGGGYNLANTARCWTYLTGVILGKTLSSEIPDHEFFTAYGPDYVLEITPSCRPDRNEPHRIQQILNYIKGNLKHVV

[11] = biological target: T2, Protein deacetylase HDAC6 (Homo sapiens, UniProt Q9UBN7); assay: Inhibition of HDAC6 (unknown origin) using Boc-Lys(Ac)-AMC as substrate incubated for 30 mins by fluorescence based analysis
T2 sequence (Q9UBN7 whole entry): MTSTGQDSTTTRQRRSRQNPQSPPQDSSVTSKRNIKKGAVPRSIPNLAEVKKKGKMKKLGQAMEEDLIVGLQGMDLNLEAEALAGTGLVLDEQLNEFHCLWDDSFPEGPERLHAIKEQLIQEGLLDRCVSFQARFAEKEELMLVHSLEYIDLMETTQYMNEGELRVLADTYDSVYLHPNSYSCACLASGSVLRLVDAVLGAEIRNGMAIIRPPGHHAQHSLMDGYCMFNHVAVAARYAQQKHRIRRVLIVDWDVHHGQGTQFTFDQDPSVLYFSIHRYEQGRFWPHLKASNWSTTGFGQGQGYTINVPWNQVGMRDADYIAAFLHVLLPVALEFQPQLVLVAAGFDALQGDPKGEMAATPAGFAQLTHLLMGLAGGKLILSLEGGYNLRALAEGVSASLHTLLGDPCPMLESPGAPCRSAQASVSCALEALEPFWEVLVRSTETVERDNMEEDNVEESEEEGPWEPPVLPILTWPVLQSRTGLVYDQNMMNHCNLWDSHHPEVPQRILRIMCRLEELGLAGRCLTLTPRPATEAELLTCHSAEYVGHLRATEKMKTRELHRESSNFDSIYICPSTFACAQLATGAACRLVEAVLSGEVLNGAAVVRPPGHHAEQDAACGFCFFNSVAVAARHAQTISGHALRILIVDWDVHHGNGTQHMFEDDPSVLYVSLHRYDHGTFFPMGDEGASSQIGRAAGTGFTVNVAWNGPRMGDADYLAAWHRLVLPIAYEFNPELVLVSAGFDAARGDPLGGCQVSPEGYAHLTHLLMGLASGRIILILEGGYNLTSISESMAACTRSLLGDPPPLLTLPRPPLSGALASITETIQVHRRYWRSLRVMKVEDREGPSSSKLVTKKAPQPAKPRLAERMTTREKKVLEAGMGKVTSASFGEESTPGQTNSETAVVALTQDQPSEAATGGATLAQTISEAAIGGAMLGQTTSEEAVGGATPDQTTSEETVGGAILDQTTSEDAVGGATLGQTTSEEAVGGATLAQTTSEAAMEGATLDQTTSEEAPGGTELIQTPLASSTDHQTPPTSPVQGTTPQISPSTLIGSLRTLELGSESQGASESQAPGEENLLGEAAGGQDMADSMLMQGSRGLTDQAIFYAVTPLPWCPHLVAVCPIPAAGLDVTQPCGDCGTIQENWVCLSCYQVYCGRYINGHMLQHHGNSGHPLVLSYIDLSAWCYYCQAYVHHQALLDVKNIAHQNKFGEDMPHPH

Histone deacetylase 11 = biological target: T3, Histone deacetylase 11 (Homo sapiens, UniProt Q96DB2); assay: Inhibition of HDAC11 (unknown origin) using Ac-ETDKrnyr-AMC as substrate incubated for 30 mins by fluorescence based analysis
T3 sequence (Q96DB2 whole entry): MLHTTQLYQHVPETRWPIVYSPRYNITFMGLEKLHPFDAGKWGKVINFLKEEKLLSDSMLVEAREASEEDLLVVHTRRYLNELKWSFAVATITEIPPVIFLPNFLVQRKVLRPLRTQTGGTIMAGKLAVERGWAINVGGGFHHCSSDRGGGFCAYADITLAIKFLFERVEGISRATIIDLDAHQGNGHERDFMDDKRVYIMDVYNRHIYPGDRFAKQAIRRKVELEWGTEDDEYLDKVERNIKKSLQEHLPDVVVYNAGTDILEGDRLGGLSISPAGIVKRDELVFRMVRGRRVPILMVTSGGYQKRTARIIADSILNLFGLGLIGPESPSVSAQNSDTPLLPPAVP

[12] = biological target: Non-receptor tyrosine-protein kinase TYK2 (Homo sapiens, UniProt P29597); assay: Inhibition of TYK2 (unknown origin) incubated for 40 mins in presence of ATP by Kinase-glo luminescent assay
Chain of Non-receptor tyrosine-protein kinase TYK2 (P29597 whole entry): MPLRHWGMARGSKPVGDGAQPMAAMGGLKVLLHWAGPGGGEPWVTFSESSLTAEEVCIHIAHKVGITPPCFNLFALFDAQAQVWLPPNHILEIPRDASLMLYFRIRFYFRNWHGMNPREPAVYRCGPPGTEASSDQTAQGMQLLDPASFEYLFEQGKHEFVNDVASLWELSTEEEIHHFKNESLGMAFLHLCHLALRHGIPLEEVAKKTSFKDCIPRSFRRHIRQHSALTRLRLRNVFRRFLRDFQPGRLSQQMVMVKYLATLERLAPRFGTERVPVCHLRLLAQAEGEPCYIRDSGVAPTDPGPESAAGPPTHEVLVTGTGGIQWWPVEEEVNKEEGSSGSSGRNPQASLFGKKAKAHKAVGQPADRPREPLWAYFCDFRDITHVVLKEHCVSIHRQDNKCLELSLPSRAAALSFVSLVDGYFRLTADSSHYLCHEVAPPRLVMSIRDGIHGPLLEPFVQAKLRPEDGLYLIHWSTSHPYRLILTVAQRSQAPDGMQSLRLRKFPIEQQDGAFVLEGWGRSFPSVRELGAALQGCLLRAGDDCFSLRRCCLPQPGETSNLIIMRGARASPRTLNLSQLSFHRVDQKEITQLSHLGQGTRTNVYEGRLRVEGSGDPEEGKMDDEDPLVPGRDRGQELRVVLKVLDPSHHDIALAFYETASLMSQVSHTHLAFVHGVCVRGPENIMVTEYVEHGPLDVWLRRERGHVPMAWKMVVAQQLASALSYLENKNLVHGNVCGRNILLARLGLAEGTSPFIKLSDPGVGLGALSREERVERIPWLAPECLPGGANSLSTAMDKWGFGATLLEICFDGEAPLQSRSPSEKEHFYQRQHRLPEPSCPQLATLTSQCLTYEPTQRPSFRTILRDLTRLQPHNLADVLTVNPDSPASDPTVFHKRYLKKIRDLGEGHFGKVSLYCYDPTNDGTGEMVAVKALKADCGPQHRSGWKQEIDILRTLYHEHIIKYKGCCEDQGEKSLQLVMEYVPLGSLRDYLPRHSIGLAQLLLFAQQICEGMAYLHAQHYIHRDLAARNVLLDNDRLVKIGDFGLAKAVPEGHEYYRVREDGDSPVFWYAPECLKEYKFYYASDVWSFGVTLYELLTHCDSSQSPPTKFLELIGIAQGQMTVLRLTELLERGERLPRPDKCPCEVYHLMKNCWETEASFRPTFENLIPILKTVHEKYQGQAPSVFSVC

[13] = biological target: Proto-oncogene tyrosine-protein kinase receptor Ret (Homo sapiens, UniProt P07949); assay: Inhibition of RET (unknown origin) incubated for 40 mins in presence of ATP by Kinase-glo luminescent assay
Chain of Proto-oncogene tyrosine-protein kinase receptor Ret (P07949 whole entry): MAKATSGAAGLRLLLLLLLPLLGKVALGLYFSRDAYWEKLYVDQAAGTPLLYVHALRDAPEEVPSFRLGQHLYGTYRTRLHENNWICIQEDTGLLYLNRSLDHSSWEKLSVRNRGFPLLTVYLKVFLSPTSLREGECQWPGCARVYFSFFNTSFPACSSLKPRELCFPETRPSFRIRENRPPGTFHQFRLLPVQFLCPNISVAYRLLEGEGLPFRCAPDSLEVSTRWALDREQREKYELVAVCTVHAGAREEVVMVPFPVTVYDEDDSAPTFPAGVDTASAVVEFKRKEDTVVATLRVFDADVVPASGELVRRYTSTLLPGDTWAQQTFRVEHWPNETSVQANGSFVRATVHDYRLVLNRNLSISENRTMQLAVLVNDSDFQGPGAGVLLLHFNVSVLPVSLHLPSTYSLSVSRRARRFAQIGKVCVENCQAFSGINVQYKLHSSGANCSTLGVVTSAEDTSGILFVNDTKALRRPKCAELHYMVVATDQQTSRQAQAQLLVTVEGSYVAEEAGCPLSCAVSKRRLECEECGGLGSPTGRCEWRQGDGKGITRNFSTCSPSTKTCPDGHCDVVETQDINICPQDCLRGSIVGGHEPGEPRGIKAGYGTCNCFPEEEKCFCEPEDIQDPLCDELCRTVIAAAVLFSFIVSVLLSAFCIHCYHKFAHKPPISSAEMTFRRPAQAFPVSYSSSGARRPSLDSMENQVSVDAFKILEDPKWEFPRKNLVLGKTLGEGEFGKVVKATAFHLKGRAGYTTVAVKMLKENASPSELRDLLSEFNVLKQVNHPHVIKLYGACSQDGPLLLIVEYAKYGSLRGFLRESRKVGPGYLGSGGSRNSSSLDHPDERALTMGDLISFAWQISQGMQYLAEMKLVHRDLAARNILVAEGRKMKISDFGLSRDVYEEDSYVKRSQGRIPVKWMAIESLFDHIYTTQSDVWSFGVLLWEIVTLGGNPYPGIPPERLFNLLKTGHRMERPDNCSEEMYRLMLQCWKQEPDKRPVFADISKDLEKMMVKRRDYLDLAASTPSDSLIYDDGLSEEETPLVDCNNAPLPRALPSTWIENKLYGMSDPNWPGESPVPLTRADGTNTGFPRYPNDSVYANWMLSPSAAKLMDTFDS

GES1 = assay: Cytotoxicity against human GES1 cells at 1 uM incubated for 48 hrs by MTT assay; assay type: toxicity, cell-based; conditions: ges1, 48 h

half-life [1]: 37.5 min
Tmax [2]: 11.4 min
Cmax [3]: 4730 ng/mL
AUCt [4]: 1951 ng·h/mL
AUC(0-t) at 24 h [5]: 14800 ng·h/mL
MRT(t) [6]: 99.6 min
MRT last at 24 h [7]: 131 min
Vdss [8]: 8.84 L/kg
F [9]: 151%
IC50 (Histone deacetylase 8): 160 nM
IC50 [11]: 270 nM
IC50 (Histone deacetylase 11): > 5000 nM
IC50 [12]: 99 nM
IC50 [13]: 47 nM
Structure (SMILES): Cc1cnc(Nc2ccc(OCCN3CCCC3)cc2)nc1Nc1ccc(C(=O)NO)cc1
Activity [10]: Non-Toxic
Activity (GES1): Non-Toxic
